Where “and” joins values, the source holds several entries; their conditions need not be identical. Identical values can stand only once.

The source of these data is patent US5132463A, “1,3-diaryl cyclopentanes and derivatives thereof as PAF antagonists” (Merck & Co., Inc., priority 1991, dated 1992).

For one assay, the target named is T1, PAF receptor (specific receptor binding site on rabbit platelet plasma membranes) (Oryctolagus cuniculus, UniProt G1TEI7).
T1 construct: 100 μg of the platelet plasma membrane suspension; from tissue; host or cells: rabbit platelet plasma membranes
T1 sequence (G1TEI7 1-342): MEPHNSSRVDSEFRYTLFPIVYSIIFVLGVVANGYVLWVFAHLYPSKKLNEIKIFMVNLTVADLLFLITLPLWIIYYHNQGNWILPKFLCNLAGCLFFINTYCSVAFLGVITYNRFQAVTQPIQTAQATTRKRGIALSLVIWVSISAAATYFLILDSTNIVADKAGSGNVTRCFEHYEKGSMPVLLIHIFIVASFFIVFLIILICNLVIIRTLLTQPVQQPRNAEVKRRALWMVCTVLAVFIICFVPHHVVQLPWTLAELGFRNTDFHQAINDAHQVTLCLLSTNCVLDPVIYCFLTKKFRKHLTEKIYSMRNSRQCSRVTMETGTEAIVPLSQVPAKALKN
As to the kind of experiment: inhibition of 3H-PAF binding to rabbit platelet plasma membrane. Conditions: Table (A), 3H-PAF, pH 7.5, 0° C. How it is done:
They inhibit in vitro PAF-induced functions in both the cellular and tissue levels by changing the PAF binding to its specific receptor site. This ability to inhibit the PAF binding to its specific receptor binding site on rabbit platelet plasma membranes was measured by an assay recently developed by us.
The inhibition of H^3 -PAF binding to the rabbit platelet plasma membrane by a PAF antagonist of Formula (I) was determined by isotopic labeling and filtration techniques. Generally, a series of Tris-buffered solutions of the selected antagonist at predetermined concentrations were prepared. Each of these solutions contains 1 pmole of ^3 H-PAF, a known amount of the test antagonist, and a sufficient amount of the pH 7.5 Tris-buffer solution (10 mM Tris, 0.25% bovine serum albumin, and 150 mM NaCl per ml water) to make the final volume of 1 ml. After adding into a set of test tubes each with 100 μg of the platelet plasma membrane suspension (S. B. Hwang, et al., Biochemistry, Vol. 22, pp. 4756-4763, 1983) and one of the Tris-buffer solutions described above, the resulting mixture in each test tube was incubated at 0° C. for about one hour or until the reaction was complete. Two control samples, one of which (C1) contains all the ingredients described above except the antagonist and the other (C 2) contains C1 plus a 1000-fold excess of unlabeled PAF, were also prepared and incubated simultaneously with the test samples. After the incubation was completed, the contents of each test tube were filtered under vacuo through a Whatman GF/C fiberglass filter and the residue washed rapidly several times with a total of 20 ml cold (0°-5° C.) Tris-buffer solution. Each washed residue was then suspended in 10 ml scintillation solution (Aquasol 2, New England Nuclear, Conn.) and the radioactivity was counted in a Packard Tri-Carb 460CD Liquid Scintillation System. Defining the counts from a test sample as "Total binding with antagonist"; the counts from the control sample C1, as "Total binding C1 "; and the counts from the control sample C2 as "non-specific binding C2 ", the percent inhibition of each test antagonist can be determined by the following equation: [formula]
Molecule `CCOC(=O)COC1[C@H](c2cc(OC)c(OC)c(OC)c2)CC[C@H]1c1cc(OC)c(OC)c(OC)c1` (relative stereo) gave a concentration for half-maximal inhibition (IC50) of 3.6 nM.

Regarding `COc1cc([C@@H]2CC[C@@H](c3cc(OC)c(OC)c(OC)c3)C2)cc(OC)c1OC` (relative stereo) [H, 1α,3β-bis(3,4,5-trimethoxyphenyl)cyclopentane], the IC50 came to 20 nM. For `C=CCOC1[C@H](c2cc(OC)c(OC)c(OC)c2)CC[C@H]1c1cc(OC)c(OC)c(OC)c1` (relative stereo), the half-inhibitory concentration (IC50) came to 4.8 nM. With `COc1cc([C@@H]2CC[C@@H](c3cc(OC)c(OC)c(OC)c3)C2OCc2ccccc2)cc(OC)c1OC` (relative stereo) [OCH2 C6 H5], the half-maximal inhibitory concentration (IC50) came out at 48 nM. For the molecule `CCCOC1[C@H](c2cc(OC)c(OC)c(OC)c2)CC[C@H]1c1cc(OC)c(OC)c(OC)c1` (relative stereo), the IC50 stood at 30 nM.

For the molecule `COc1cc([C@@H]2CC[C@@H](c3cc(OC)c(OC)c(OC)c3)C2OCC2CC2)cc(OC)c1OC` (relative stereo), the IC50 was determined as 19 nM. `COc1cc([C@H]2CC[C@H](c3cc(OC)c(OC)c(OC)c3)C2=NO)cc(OC)c1OC` (relative stereo) [NOH, trans-2,5-bis(3,4,5-trimethoxyphenyl)cyclopentanone oxime]: the 50% inhibitory concentration (IC50) turned out to be 5.8 nM. Still for that read-out and setting: in the case of `COCCOC1[C@H](c2cc(OC)c(OC)c(OC)c2)CC[C@H]1c1cc(OC)c(OC)c(OC)c1` (relative stereo) it was 100 nM; in that of `CCOC1[C@H](c2cc(OC)c(OC)c(OC)c2)CC[C@H]1c1cc(OC)c(OC)c(OC)c1` (relative stereo), 30 nM; in that of `COc1cc([C@@H]2CC[C@@H](c3cc(OC)c(OC)c(OC)c3)C2OC(C)=O)cc(OC)c1OC` (relative stereo) [OCOCH3, 1α-acetoxy-2α,5β-bis(3,4,5-trimethoxypheny)cyclopentane], 100 nM. Consider `COc1cc([C@@H]2CC[C@@H](c3cc(OC)c(OC)c(OC)c3)C2OCCN(C)C)cc(OC)c1OC` (relative stereo), for which the IC50 turned out to be 100 nM. `CON=C1[C@@H](c2cc(OC)c(OC)c(OC)c2)CC[C@@H]1c1cc(OC)c(OC)c(OC)c1` (relative stereo) [NOCH3, Trans-2,5-bis(3,4,5-trimethoxyphenyl)cyclopentanone-O-methyloxime]: the IC50 came to 5 nM. `COc1cc([C@@H]2CC[C@@H](c3cc(OC)c(OC)c(OC)c3)C2OC)cc(OC)c1OC` (relative stereo) [OCH3, 1α-Methoxy-2α,5β-bis-(3,4,5-trimethoxyphenyl)cyclopentane] came in with a half-maximal inhibitory concentration (IC50) of 8.3 nM. Still for that read-out and setting: the figure for `C#CCOC1[C@H](c2cc(OC)c(OC)c(OC)c2)CC[C@H]1c1cc(OC)c(OC)c(OC)c1` (relative stereo) is 1 nM.

Staying with this assay, now noted: Table (A), at 300 nM, read-out: PAF Receptor Binding Inhibition, Percent Inhibition.
For `COc1cc([C@@H]2CC[C@@H](c3cc(OC)c(OC)c(OC)c3)C2OCC(=O)O)cc(OC)c1OC` (relative stereo), the inhibition at 0.3 µM is 16%. Take `COc1cc([C@@H]2CC[C@@H](c3cc(OC)c(OC)c(OC)c3)C2OCC(=O)N(C)C)cc(OC)c1OC` (relative stereo): the inhibition at 0.3 µM turned out to be 23%.

Still in this assay, the particulars now being: Table (A), at 500 nM, read-out: PAF Receptor Binding Inhibition, Percent Inhibition.
As to `COc1cc([C@@H]2CC[C@@H](c3cc(OC)c(OC)c(OC)c3)C2O)cc(OC)c1OC` (relative stereo) [OH, trans-2,5-bis(3,4,5-trimethoxyphenyl)cyclopentanol], the inhibition at 0.5 µM turned out to be 84%.

The assay is the same for the next values; noted with them: Table (B), 3H-PAF, pH 7.5, 0° C.
Take `CCCOc1c(OC)cc([C@@H]2CC[C@@H](c3cc(OC)c(OC)c(OC)c3)[C@@H]2OC)cc1[S+](C)[O-]` (relative stereo) [OCH3, SOCH3]: the IC50 was 18 nM and 9.3 nM.

`CCCOc1c(Br)cc([C@@H]2CC[C@@H](c3cc(OC)c(OC)c(OC)c3)[C@H]2OC)cc1OC` (relative stereo) [OCH3, Br] showed an IC50 of 47 nM. Take `CCCOc1c(OC)cc([C@H]2CC[C@H](c3cc(OC)c(OC)c(OC)c3)[C@@H]2OC)cc1C(N)=O` (relative stereo) [OCH3, (CO)NH2]: the IC50 is 124 nM and 47 nM. With `CCCOc1c(OC)cc([C@@H]2CC[C@@H](c3cc(OC)c(OC)c(OC)c3)[C@@H]2OC)cc1S(C)(=O)=O` (relative stereo) [OCH3, SO2 CH3], the half-inhibitory concentration (IC50) is 4.3 nM and 3.8 nM.

The assay is the same for the next values; noted with them: Table (B), at 300 nM, 0.3 µM.
As to `CCCOc1c(OC)cc([C@@H]2CC[C@@H](c3cc(OC)c(OC)c(OC)c3)[C@@H]2O)cc1SC` (relative stereo) [OH, SCH3], the “PAF Receptor Binding Inhibition, Percent Inhibition” value came to 38%.

The same assay, now with this note: Table (B), at 300 nM, read-out: PAF Receptor Binding Inhibition, Percent Inhibition.
Take `CCCOc1c(OC)cc([C@@H]2CC[C@@H](c3cc(OC)c(OC)c(OC)c3)[C@@H]2O)cc1SC` (relative stereo) [OH, SCH3]: the inhibition at 0.3 µM amounted to 23%.
